Literature values as cited in US9072714B2, “Fatty acids for use as a medicament” (Lipid Pharmaceuticals ehf., priority 2008, dated 2015).

Conditions: laxative, by class and site of action

CCCCC(CC)COC(=O)CC(C(=O)OCC(CC)CCCC)S(=O)(=O)O (centres unmarked) [Docusate]
Onset of action: 12 to 72 h

O=C1OC(c2ccc(O)cc2)(c2ccc(O)cc2)c2ccccc21 [Phenolphthalein]
Onset of action: 6 to 8 h
